Results reported in publication PMC3906007, “Discovery of a Small Molecule Agonist of Phosphatidylinositol 3-Kinase p110α That Reactivates Latent HIV-1” (PLoS ONE, 2014).

Assays:
[1] = system: latent HIV-1 in J89GFP cells; assay: Latent HIV-1 reactivation in J89GFP cells (EGFP positive cells, flow cytometry); assay type: cell-based; details: J89GFP
Description: Three different cell lines of HIV-1 latency were used in this study. These included J89GFP, U1 and ACH-2 cells. The J89GFP cells were a kind gift from Dr. David Levy. The ACH-2 and U1 cells were obtained through the AIDS Research and Reference Reagent Program, Division of AIDS, NIAID, NIH: Dr. Thomas Folks contributor [19]–[21]. Reactivation of latent HIV-1 in the J89GFP cells was measured by quantifying the percentage of EGFP positive cells using a BD FACScan flow cytometer with BD FACSDiva software (BD Biosciences, CA), as described previously. Reactivation of latent HIV-1 in the ACH-2 and U 1 cells was assessed by quantitative analysis of initiated and elongated HIV-1 transcripts, as described previously. All 3 cell lines were maintained in RMPI 1640 medium supplemented with 10% FBS, 0.3 mg/mL L-glutamine, 100 U/mL penicillin, and 100 µg/mL streptomycin at 37°C in humidified air with 5% CO2.
To identify novel activators of latent HIV-1 expression, we screened 640 pure natural products from the TimTec Natural Compound Library at a concentration of 10 ng/mL for 24 hrs in a Jurkat cell (J89GFP) model of latency for their cytotoxicity and ability to reactivate HIV-1 expression. J89GFP cells contain a stably integrated, full-length HIV-1 provirus with an enhanced GFP (EGFP) reporter incorporated into the viral genome. The viral genome in these cells is transcriptionally silent. However, upon stimulation viral transcription is activated and viral expression can be measured by EGFP production. […].

[2] = system: T cell; parameters: method as in PMID 22732922; details: cited from earlier work
[3] = system: latent HIV-1 in CD8+-depleted MNC; assay type: cell-based; details: across all four donors; 0.5 or 2 µM
Text: Healthy HIV-1 uninfected blood donors and HIV-1-infected donors on suppressive cART with plasma HIV-1 RNA less than 50 copies/mL for >2 year provided written informed consent and underwent a large volume phlebotomy (100–200 mLs). The protocol for blood donation was approved by the Institutional Review Board of the University of Pittsburgh (IRB #PRO10070203).
(§1) CD8+T-cells were depleted from whole blood using RosetteSep Human CD8 Depletion Cocktail (StemCell Technologies, Vancouver, BC) according to manufacturer's instructions. 2×10^6 CD4^+ MNC cells were seeded in triplicate per treatment in 48-well plates and allowed to rest overnight. […] Activation controls were treated with CD3/CD28 Dynabeads (Life Technologies, Grand Island, NY). After 7 days of incubation, supernatants from triplicate wells were pooled, centrifuged (500 g×5 min), and stored at −80°C. HIV-1 RNA levels in supernatants were determined using the COBAS® AmpliPrep/COBAS® TaqMan® HIV-1 Test, v2.0 (Roche, Indianapolis, IN).

[4] = system: PI3K p110δ RNA; assay: PI3K isoform RNA transcript levels in J89GFP cells, p110δ; assay type: cell-based; details: 5 µM
[5] = Cytotoxicity (MTT or CellTiter 96), HeLa; assay type: cell-based; details: human, HeLa cells; 24 hour incubation; mean ± SD, 3 replicates
Description: (§2) Following a 24 hour incubation period, cell viability was measured using either the MTT (Roche Applied Science, Indianapolis, IN) or CellTiter 96 proliferation (Promega, WI) assay.

[6] = Cytotoxicity (MTT or CellTiter 96), CD8+-depleted MNC; assay type: cell-based; details: human, CD8+-depleted mononuclear cells (MNC) from whole blood; 24 hour incubation; mean of 2 replicates
Description: as §2
as §1, with “overnight. All wells were maintained in 81 nM efavirenz.” for “overnight.”

[7] = system: HIV-1 RNA expression in resting CD4+ T cells; details: single 400 mg dose; 8 HIV-infected patients on suppressive cART; cited from earlier work
[8] = Cytotoxicity (MTT or CellTiter 96), Jurkat; assay type: cell-based; details: human, Jurkat cells; 24 hour incubation; mean ± SD, 3 replicates
Description: as §2

[9] = Cytotoxicity (MTT or CellTiter 96), 293T; assay type: cell-based; details: human, 293T cells; 24 hour incubation; mean ± SD, 3 replicates
Description: as §2

[10] = parameters: method as in PMID 20936324; details: phase II clinical trial, ovarian cancer; cited from earlier work

CC(=O)O[C@@]12C[C@@H](C)[C@@]3(O)[C@@H](C=C(CO)C[C@]4(O)C(=O)C(C)=C[C@@H]34)[C@@H]1C2(C)C [prostratin, reference compound]
Latent HIV-1 reactivation activity in presence of PI3K inhibitor wortmannin ([1]; 20 nM wortmannin): remained unaffected
Latent HIV-1 reactivation activity in presence of Akt Inhibitor IV ([1]; 500 nM Akt Inhibitor IV): remained unaffected
Latent HIV-1 reactivation activity in presence of PKC inhibitor Gö6983 ([1]; 500 nM Go6983): attenuated
Latent HIV-1 reactivation activity in presence of JNK inhibitor SP600125 ([1]; 1 µM SP00125): remained unaffected
Latent HIV-1 reactivation activity in presence of NFAT/calcineurin inhibitor cyclosporin A ([1]; 1 µM cyclosporin A): remained unaffected
Global T cell activation [2]: induces global T cell activation

O=C(CCCCCCC(=O)Nc1ccccc1)NO [SAHA, vorinostat, reference compound]
Capacity to increase HIV-1 expression in the CD8+-depleted MNC [3]: very limited capacity
Effect on PI3K p110δ RNA transcript levels / gene expression [4]: significantly up-regulate
CC50 at 24 h [5]: 11.3 ± 0.3 µM
CC50 at 24 h [6]: 0.7 µM
HIV-1 RNA expression in resting CD4+ T cells [7]: induced an increase in HIV-1 RNA expression
CC50 at 24 h [8]: 10 ± 0.1 µM
CC50 at 24 h [9]: 14.1 ± 0.2 µM

CCC/C=C/C=C/C(=O)O[C@H]1/C(=C/C(=O)OC)C[C@H]2C[C@H]([C@@H](C)O)OC(=O)C[C@H](O)C[C@@H]3C[C@H](OC(C)=O)C(C)(C)[C@](O)(C[C@@H]4C/C(=C/C(=O)OC)C[C@H](/C=C/C(C)(C)[C@]1(O)O2)O4)O3 [bryostatin]
Adverse event in study participants [10]: severe myalgia in all study participants
